{"source": "paper PMC3764026", "about": "“Adaptive Evolution of Escherichia coli to an α-Peptide/β-Peptoid Peptidomimetic Induces Stable Resistance” (PLoS ONE, 2013)", "key": {"[1]": {"test_system": "isolates from peptidomimetic 1-exposed E. coli ATCC 25922 lineages", "details": "for MIC in MHB: standard MHB media", "method": "(§1) Continuous selection of resistance was performed for peptidomimetic 1 (Figure 1) and for the clinically relevant natural antimicrobial peptide, polymyxin B. A bacterial suspension of a single colony of E. coli ATCC 25922 was re-inoculated (10 µl) five times in unsupplemented MHB (990 µl). It was then re-inoculated in MHB supplemented with peptidomimetic 1 (ten lineages) or polymyxin B (ten lineages), and after ten re-inoculations at constant peptidomimetic or polymyxin B concentration, the concentrations were doubled. […] Four lineages grown in MHB with MilliQ water were included as control. Re-inoculations were performed twice a day, but were reduced to once a day when growth was slower as assessed by turbidity of the cultures. The total number of passages (supplemented with peptidomimetic/AMP) was 77 times equivalent to approx. 500 generations. For each increase in concentration the lineages were preserved as freezing stocks. Ten colony isolates were randomly selected from each lineage population at 32×MIC and preserved as freezing stocks.\nMIC was determined by using the micro-dilution method according to guidelines of the Clinical and Laboratory Standards Institute. Peptidomimetic 1 and erythromycin 1∶2 serial dilutions were prepared from 1024 µg/mL stock solutions to give a final range of 512-0.5 µg/mL in the wells. Ampicillin 1∶2 serial dilutions were prepared from a 256 µg/mL stock solution to give a final range of 128-0.13 µg/mL in the wells. Polymyxin B and gentamicin 1∶2 serial dilutions were prepared from a 64 µg/mL stock solution to give a final range of 32-0.03 µg/mL in the wells.\nThe population lineages were tested for their susceptibility towards peptidomimetic 1, polymyxin B, gentamicin and ampicillin. Single-culture isolates selected from these populations were additionally tested against peptidomimetic 1, polymyxin B, erythromycin and the five reference AMPs. To estimate the level of cross-resistance to closely related peptidomimetics, MIC determinations were performed for peptidomimetics 2 and 3 (Figure 1) towards selected isolates. The bacterial suspensions were grown overnight in MHB at 37°C for determination of the population MIC, or individual isolates were grown overnight on non-selective BHI agar at 37°C. […] In all experiments, bacterial cells were suspended in 0.9% saline to give a turbidity of 0.13 at OD546 (approximately 1×10^8 CFU/mL) and diluted in MHB pH 7.4 to a final concentration of 5×10^5 CFU/mL in each well. Polypropylene plates (Nunc 442587) were used to minimize peptide binding, and the incubation time was 18–20 hours at 37°C. […] MIC was found in a minimum of two technical (population MIC) or biological (isolate MIC) replicates as the lowest concentration of the AMP or antibiotic where no visible growth was observed."}, "[2]": {"test_system": "E. coli ATCC 25922 lineages adapted to peptidomimetic 1", "format": "cell-based, Escherichia coli", "details": "two technical duplicates; for MIC against peptidomimetic 1 after selection: MHB pH 7.4, 37°C, 18–20 h", "method": "as §1\n(§2) MIC was determined by using the micro-dilution method according to guidelines of the Clinical and Laboratory Standards Institute. Peptidomimetic 1 and erythromycin 1∶2 serial dilutions were prepared from 1024 µg/mL stock solutions to give a final range of 512-0.5 µg/mL in the wells. Ampicillin 1∶2 serial dilutions were prepared from a 256 µg/mL stock solution to give a final range of 128-0.13 µg/mL in the wells. Polymyxin B and gentamicin 1∶2 serial dilutions were prepared from a 64 µg/mL stock solution to give a final range of 32-0.03 µg/mL in the wells. Also, 1∶2 serial dilutions of the AMPs KR-12, IsCTp, melittin and PEP-1-K were prepared from 64 µg/mL stock solutions to give a final range of 32-0.03 µg/mL in the wells; however this was performed in 1% peptone instead of in MHB since activity was drastically diminished in the latter (not shown).\n(§3) The population lineages were tested for their susceptibility towards peptidomimetic 1, polymyxin B, gentamicin and ampicillin. Single-culture isolates selected from these populations were additionally tested against peptidomimetic 1, polymyxin B, erythromycin and the five reference AMPs. To estimate the level of cross-resistance to closely related peptidomimetics, MIC determinations were performed for peptidomimetics 2 and 3 (Figure 1) towards selected isolates. The bacterial suspensions were grown overnight in MHB at 37°C for determination of the population MIC, or individual isolates were grown overnight on non-selective BHI agar at 37°C. […] In all experiments, bacterial cells were suspended in 0.9% saline to give a turbidity of 0.13 at OD546 (approximately 1×10^8 CFU/mL) and diluted in MHB pH 7.4 to a final concentration of 5×10^5 CFU/mL in each well. Polypropylene plates (Nunc 442587) were used to minimize peptide binding, and the incubation time was 18–20 hours at 37°C. Incubation time was additionally extended up to 44 hours for the individual isolates due to a potential effect of growth rate on the outcome, but no effect was seen of this (not shown). MIC was found in a minimum of two technical (population MIC) or biological (isolate MIC) replicates as the lowest concentration of the AMP or antibiotic where no visible growth was observed.\n(§4) Frozen stocks were reconditioned in unsupplemented MHB media for five transfers (∼35 generations) at 37°C. The heritability of resistance was established through MIC determination of bacterial populations as described above."}, "[3]": {"test_system": "E. coli ATCC 25922 control lineages", "format": "cell-based, Escherichia coli", "details": "two technical duplicates; for MIC against peptidomimetic 1 after selection: MHB", "method": "as §1, §2, §3, §4"}, "[4]": {"test_system": "E. coli ATCC 25922 lineages adapted to polymyxin B", "format": "cell-based, Escherichia coli", "details": "polymyxin B-exposed lineages, ~35 generations unsupplemented; became similar to controls; not shown", "method": "as §1, §2, §3, §4"}}, "note": "Several values for one entry are separate records, joined by “and”; a condition that tells them apart may be missing. Equal values may be shown once. Read-outs that look alike come from different tables or passages of the source."}
{"compound": "CC(=O)N[C@@H](CCCCNC(=N)N)C(=O)N(CCC(=O)N[C@@H](CCCCNC(=N)N)C(=O)N(CCC(=O)N[C@@H](CCCCNC(=N)N)C(=O)N(CCC(=O)N[C@@H](CCCCNC(=N)N)C(=O)N(CCC(=O)N[C@@H](CCCCNC(=N)N)C(=O)N(CCC(=O)N[C@@H](CCCCNC(=N)N)C(=O)N(CCC(N)=O)[C@@H](C)c1ccccc1)[C@@H](C)c1ccccc1)[C@@H](C)c1ccccc1)[C@@H](C)c1ccccc1)[C@@H](C)c1ccccc1)[C@@H](C)c1ccccc1", "note": "[peptidomimetic 1]", "values": [{"measurement": "MIC of individual isolates", "setting": "[1]; eight out of ten isolates from lineage no. 4", "value": 8, "unit": "µg/mL"}, {"measurement": "MIC of isolate", "setting": "[1]; isolate 2–3, first listed of three biological replicates", "value": 8, "unit": "µg/mL"}, {"measurement": "MIC of isolate", "setting": "[1]; isolate 2–3, second listed of three biological replicates", "value": 16, "unit": "µg/mL"}, {"measurement": "MIC of isolate", "setting": "[1]; isolate 2–3, third listed of three biological replicates", "value": 64, "unit": "µg/mL"}, {"measurement": "MIC in MHB", "setting": "[1]; isolate 2–7 (lineage 2)", "value": "64 to 128", "unit": "µg/mL"}, {"measurement": "MIC of isolate", "setting": "[1]; isolate 2–8, first listed of three biological replicates", "value": 16, "unit": "µg/mL"}, {"measurement": "MIC of isolate", "setting": "[1]; isolate 2–8, second listed of three biological replicates", "value": 64, "unit": "µg/mL"}, {"measurement": "MIC of isolate", "setting": "[1]; isolate 2–8, third listed of three biological replicates", "value": 128, "unit": "µg/mL"}, {"measurement": "MIC in MHB", "setting": "[1]; isolate 4–4 (lineage 4)", "value": 8, "unit": "µg/mL"}, {"measurement": "MIC in MHB", "setting": "[1]; isolate 5–6 (lineage 5)", "value": "32 to 64", "unit": "µg/mL"}, {"measurement": "MIC in MHB", "setting": "[1]; isolate 7–3 (lineage 7)", "value": 128, "unit": "µg/mL"}, {"measurement": "grouping of genome-sequenced isolates by MIC: high resistance", "setting": "[1]; isolates 2–4, 2–6, 2–7, 2–9, 2–10, 7–3, 7–4, 7–7, wt MIC value 8 µg/mL", "value": "High resistance isolates: 8–16 ×wt MIC"}, {"measurement": "MIC", "setting": "[1]; isolates 2–4 and 2–6 (shared values), two biological replicates, mean when results varied", "value": 96, "unit": "µg/mL"}, {"measurement": "grouping of genome-sequenced isolates by MIC: low resistance", "setting": "[1]; isolates 4-1, 4-3, 5-6, 5-8, 5-9, wt MIC value 8 µg/mL", "value": "Low resistance isolates: 4–8 ×wt MIC"}, {"measurement": "grouping of genome-sequenced isolates by MIC", "setting": "[1]; isolates 4–4, 4–6, 4–10, 5–2, 5–4, 7–9, 7–10, wt MIC value 8 µg/mL", "value": "Isolates with wt MIC"}, {"measurement": "MIC of individual isolates", "setting": "[1]; seven out of ten isolates from lineage no. 5", "value": 8, "unit": "µg/mL"}, {"measurement": "MIC lower as compared to that of the lineage population (256 µg/mL)", "setting": "[1]; the other two isolates from lineage no. 4", "value": 4, "unit": "fold"}, {"measurement": "MIC of individual isolates, span", "setting": "[1]; the ten isolates from lineage no. 2, biological replicates", "value": "8 to 128", "unit": "µg/mL"}, {"measurement": "MIC of individual isolates, span", "setting": "[1]; the ten isolates from lineage no. 7", "value": "8 to 128", "unit": "µg/mL"}, {"measurement": "MIC against peptidomimetic 1 after 35 generations w/o selection", "setting": "[2]; peptidomimetic-exposed lineage 1, five passages in unsupplemented MHB", "value": "128 to 256", "unit": "µg/mL"}, {"measurement": "MIC against peptidomimetic 1 after 35 generations w/o selection", "setting": "[2]; peptidomimetic-exposed lineage 2, five passages in unsupplemented MHB", "value": 256, "unit": "µg/mL"}, {"measurement": "MIC against peptidomimetic 1 after selection", "setting": "[2]; peptidomimetic-exposed lineage 2, population outgrown at 32×wt MIC", "value": 256, "unit": "µg/mL"}, {"measurement": "MIC against peptidomimetic 1 after 35 generations w/o selection", "setting": "[2]; peptidomimetic-exposed lineage 3, five passages in unsupplemented MHB", "value": 128, "unit": "µg/mL"}, {"measurement": "MIC against peptidomimetic 1 after 35 generations w/o selection", "setting": "[2]; peptidomimetic-exposed lineage 4, five passages in unsupplemented MHB", "value": 128, "unit": "µg/mL"}, {"measurement": "MIC against peptidomimetic 1 after selection", "setting": "[2]; peptidomimetic-exposed lineage 4, population outgrown at 32×wt MIC", "value": 256, "unit": "µg/mL"}, {"measurement": "MIC against peptidomimetic 1 after 35 generations w/o selection", "setting": "[2]; peptidomimetic-exposed lineage 5, five passages in unsupplemented MHB", "value": 128, "unit": "µg/mL"}, {"measurement": "MIC against peptidomimetic 1 after selection", "setting": "[2]; peptidomimetic-exposed lineage 5, population outgrown at 32×wt MIC", "value": "128 µg/mL and 64 to 128 µg/mL"}, {"measurement": "MIC against peptidomimetic 1 after 35 generations w/o selection", "setting": "[2]; peptidomimetic-exposed lineage 6, five passages in unsupplemented MHB", "value": "64 to 128", "unit": "µg/mL"}, {"measurement": "MIC against peptidomimetic 1 after 35 generations w/o selection", "setting": "[2]; peptidomimetic-exposed lineage 7, five passages in unsupplemented MHB", "value": 128, "unit": "µg/mL"}, {"measurement": "MIC against peptidomimetic 1 after selection", "setting": "[2]; peptidomimetic-exposed lineage 7, population outgrown at 32×wt MIC", "value": 128, "unit": "µg/mL"}, {"measurement": "MIC against peptidomimetic 1 after 35 generations w/o selection", "setting": "[2]; peptidomimetic-exposed lineage 8, five passages in unsupplemented MHB", "value": "32 to 64", "unit": "µg/mL"}, {"measurement": "MIC against peptidomimetic 1 after 35 generations w/o selection", "setting": "[2]; peptidomimetic-exposed lineage 9, five passages in unsupplemented MHB", "value": 128, "unit": "µg/mL"}, {"measurement": "MIC against peptidomimetic 1 after 35 generations w/o selection", "setting": "[2]; peptidomimetic-exposed lineage 10, five passages in unsupplemented MHB", "value": 32, "unit": "µg/mL"}, {"measurement": "MIC against peptidomimetic 1 after selection", "setting": "[2]; peptidomimetic-exposed lineage 10, population outgrown at 32×wt MIC", "value": 256, "unit": "µg/mL"}, {"measurement": "MIC against peptidomimetic 1 after 35 generations w/o selection", "setting": "[3]; Control 1 lineage (MilliQ water)", "value": "16 to 32", "unit": "µg/mL"}, {"measurement": "MIC against peptidomimetic 1 after selection", "setting": "[3]; Control 1 lineage (MilliQ water, no peptidomimetic)", "value": 32, "unit": "µg/mL"}, {"measurement": "MIC against peptidomimetic 1 after 35 generations w/o selection", "setting": "[3]; Control 2 lineage (MilliQ water)", "value": 8, "unit": "µg/mL"}, {"measurement": "MIC against peptidomimetic 1 after selection", "setting": "[3]; Control 2 lineage (MilliQ water, no peptidomimetic)", "value": 8, "unit": "µg/mL"}, {"measurement": "cross-resistance after removal of the selection pressure", "setting": "[4]", "value": "lost"}]}
